Results as given in ChEMBL document CHEMBL1154277, “Discovery of N-substituted pyridinones as potent and selective inhibitors of p38 kinase” (Bioorg Med Chem Lett, 2009).

What was measured:
[1] = target: Serine/threonine-protein kinase PAK 4 (Homo sapiens) (UniProt O96013); experiment: Inhibition of PAK4 at 10 uM
[2] = target: Macrophage-stimulating protein receptor (Homo sapiens) (UniProt Q04912); experiment: Inhibition of RON at 10 uM
[3] = target: Homeodomain-interacting protein kinase 1 (Homo sapiens) (UniProt Q86Z02); experiment: Inhibition of HIPK1 at 10 uM
[4] = target: MAP/microtubule affinity-regulating kinase 4 (Homo sapiens) (UniProt Q96L34); experiment: Inhibition of MARK4 at 10 uM
[5] = target: Proto-oncogene tyrosine-protein kinase ROS (Homo sapiens) (UniProt P08922); experiment: Inhibition of ROS1 at 10 uM
[6] = target: Casein kinase I isoform gamma-2 (Homo sapiens) (UniProt P78368); experiment: Inhibition of CSNK1G2 at 10 uM
[7] = target: Serine/threonine-protein kinase D2 (Homo sapiens) (UniProt Q9BZL6); experiment: Inhibition of PKD2 at 10 uM
[8] = target: Ephrin type-B receptor 1 (Homo sapiens) (UniProt P54762); experiment: Inhibition of EPHB1 at 10 uM
[9] = target: G protein-coupled receptor kinase 3 (Homo sapiens) (UniProt P35626); experiment: Inhibition of GRK3 at 10 uM
[10] = target: Platelet-derived growth factor receptor beta (Homo sapiens) (UniProt P09619); experiment: Inhibition of PDGFRbeta at 10 uM
[11] = target: 3-phosphoinositide-dependent protein kinase 1 (Homo sapiens) (UniProt O15530); experiment: Inhibition of PDK1 at 10 uM
[12] = target: Tyrosine-protein kinase Fes/Fps (Homo sapiens) (UniProt P07332); experiment: Inhibition of FES at 10 uM
[13] = target: Casein kinase I isoform alpha (Homo sapiens) (UniProt P48729); experiment: Inhibition of CSNK1A1 at 10 uM
[14] = target: Mitogen-activated protein kinase 8 (Homo sapiens) (UniProt P45983); experiment: Inhibition of JNK1 at 10 uM
[15] = target: Tyrosine-protein kinase JAK3 (Homo sapiens) (UniProt P52333); experiment: Inhibition of JAK3 at 10 uM
[16] = target: SRSF protein kinase 1 (Homo sapiens) (UniProt Q96SB4); experiment: Inhibition of SRPK1 at 10 uM
[17] = system: Tyrosine-protein kinase ABL1 (Homo sapiens), P00519 [G250E]; experiment: Inhibition of ABL1 G250E (mutant) at 10 uM
[18] = target: Serine/threonine-protein kinase Sgk2 (Homo sapiens) (UniProt Q9HBY8); experiment: Inhibition of SGK2 at 10 uM
[19] = target: Tyrosine-protein kinase Blk (Homo sapiens) (UniProt P51451); experiment: Inhibition of BLK at 10 uM
[20] = target: Tyrosine-protein kinase ZAP-70 (Homo sapiens) (UniProt P43403); experiment: Inhibition of ZAP70 at 10 uM
[21] = target: Protein kinase C gamma type (Homo sapiens) (UniProt P05129); experiment: Inhibition of PKCgamma at 10 uM
[22] = target: Mitogen-activated protein kinase 3 (Homo sapiens) (UniProt P27361); experiment: Inhibition of ERK1 at 10 uM
[23] = target: Serine/threonine-protein kinase 26 (Homo sapiens) (UniProt Q9P289); experiment: Inhibition of MST4 at 10 uM
[24] = target: Glycogen synthase kinase-3 alpha (Homo sapiens) (UniProt P49840); experiment: Inhibition of GSK3alpha at 10 uM
[25] = target: Focal adhesion kinase 1 (Homo sapiens) (UniProt Q05397); experiment: Inhibition of FAK at 10 uM
[26] = target: RAF proto-oncogene serine/threonine-protein kinase (Homo sapiens) (UniProt P04049); experiment: Inhibition of cRAF at 10 uM
[27] = target: Serine/threonine-protein kinase B-raf (Homo sapiens) (UniProt P15056); experiment: Inhibition of B-Raf at 10 uM
[28] = target: Serine/threonine-protein kinase PAK 6 (Homo sapiens) (UniProt Q9NQU5); experiment: Inhibition of PAK6 at 10 uM
[29] = target: Serine/threonine-protein kinase PAK 2 (Homo sapiens) (UniProt Q13177); experiment: Inhibition of PAK2 at 10 uM
[30] = target: Ribosomal protein S6 kinase alpha-5 (Homo sapiens) (UniProt O75582); experiment: Inhibition of MSK1 at 10 uM
[31] = target: G protein-coupled receptor kinase 5 (Homo sapiens) (UniProt P34947); experiment: Inhibition of GRK5 at 10 uM
[32] = target: Dual specificity mitogen-activated protein kinase kinase 6 (Homo sapiens) (UniProt P52564); experiment: Inhibition of MKK6 at 10 uM
[33] = target: Calcium/calmodulin-dependent protein kinase type II subunit beta (Homo sapiens) (UniProt Q13554); experiment: Inhibition of CAMK2beta at 10 uM
[34] = target: Mitogen-activated protein kinase kinase kinase 9 (Homo sapiens) (UniProt P80192); experiment: Inhibition of MLK1 at 10 uM
[35] = target: Serine/threonine-protein kinase 24 (Homo sapiens) (UniProt Q9Y6E0); experiment: Inhibition of MST3 at 10 uM
[36] = target: Proto-oncogene tyrosine-protein kinase Src (Homo sapiens) (UniProt P12931); experiment: Inhibition of SRC at 10 uM
[37] = target: NUAK family SNF1-like kinase 1 (Homo sapiens) (UniProt O60285); experiment: Inhibition of NUAK1 at 10 uM
[38] = target: Serine/threonine-protein kinase 25 (Homo sapiens) (UniProt O00506); experiment: Inhibition of YSK1 at 10 uM
[39] = target: Interleukin-1 receptor-associated kinase 4 (Homo sapiens) (UniProt Q9NWZ3); experiment: Inhibition of IRAK4 at 10 uM
[40] = target: Mitogen-activated protein kinase 10 (Homo sapiens) (UniProt P53779); experiment: Inhibition of JNK3 at 10 uM
[41] = target: Serine/threonine-protein kinase Chk2 (Homo sapiens) (UniProt O96017); experiment: Inhibition of CHK2 at 10 uM
[42] = target: Ephrin type-B receptor 4 (Homo sapiens) (UniProt P54760); experiment: Inhibition of EPHB4 at 10 uM
[43] = target: Serine/threonine-protein kinase Sgk1 (Homo sapiens) (UniProt O00141); experiment: Inhibition of SGK1 at 10 uM
[44] = target: Ribosomal protein S6 kinase alpha-6 (Homo sapiens) (UniProt Q9UK32); experiment: Inhibition of RSK4 at 10 uM
[45] = target: Serine/threonine-protein kinase MRCK beta (Homo sapiens) (UniProt Q9Y5S2); experiment: Inhibition of MRCKbeta at 10 uM
[46] = target: Serine/threonine-protein kinase PAK 3 (Homo sapiens) (UniProt O75914); experiment: Inhibition of PAK3 at 10 uM
[47] = target: Serine/threonine-protein kinase MRCK alpha (Homo sapiens) (UniProt Q5VT25); experiment: Inhibition of MRCKalpha at 10 uM

NUAK family SNF1-like kinase 1 (Homo sapiens), sequence (O60285 whole entry): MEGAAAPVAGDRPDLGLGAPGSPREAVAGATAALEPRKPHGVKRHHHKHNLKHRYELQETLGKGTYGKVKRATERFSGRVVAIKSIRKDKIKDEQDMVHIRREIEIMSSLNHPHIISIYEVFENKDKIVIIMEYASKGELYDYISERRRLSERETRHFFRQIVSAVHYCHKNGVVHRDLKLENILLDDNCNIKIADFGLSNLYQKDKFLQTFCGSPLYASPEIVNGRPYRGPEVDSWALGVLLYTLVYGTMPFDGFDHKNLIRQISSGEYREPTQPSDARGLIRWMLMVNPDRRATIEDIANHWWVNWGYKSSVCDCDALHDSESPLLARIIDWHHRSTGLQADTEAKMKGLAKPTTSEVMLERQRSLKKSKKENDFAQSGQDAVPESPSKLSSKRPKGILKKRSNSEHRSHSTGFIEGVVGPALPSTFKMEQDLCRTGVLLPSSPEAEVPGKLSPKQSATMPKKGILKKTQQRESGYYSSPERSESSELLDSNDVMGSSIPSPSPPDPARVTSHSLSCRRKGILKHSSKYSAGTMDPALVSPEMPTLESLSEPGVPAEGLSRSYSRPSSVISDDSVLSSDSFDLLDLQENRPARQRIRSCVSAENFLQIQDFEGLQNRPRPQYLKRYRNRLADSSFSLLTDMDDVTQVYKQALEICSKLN
Serine/threonine-protein kinase Chk2 (Homo sapiens), sequence (O96017 whole entry): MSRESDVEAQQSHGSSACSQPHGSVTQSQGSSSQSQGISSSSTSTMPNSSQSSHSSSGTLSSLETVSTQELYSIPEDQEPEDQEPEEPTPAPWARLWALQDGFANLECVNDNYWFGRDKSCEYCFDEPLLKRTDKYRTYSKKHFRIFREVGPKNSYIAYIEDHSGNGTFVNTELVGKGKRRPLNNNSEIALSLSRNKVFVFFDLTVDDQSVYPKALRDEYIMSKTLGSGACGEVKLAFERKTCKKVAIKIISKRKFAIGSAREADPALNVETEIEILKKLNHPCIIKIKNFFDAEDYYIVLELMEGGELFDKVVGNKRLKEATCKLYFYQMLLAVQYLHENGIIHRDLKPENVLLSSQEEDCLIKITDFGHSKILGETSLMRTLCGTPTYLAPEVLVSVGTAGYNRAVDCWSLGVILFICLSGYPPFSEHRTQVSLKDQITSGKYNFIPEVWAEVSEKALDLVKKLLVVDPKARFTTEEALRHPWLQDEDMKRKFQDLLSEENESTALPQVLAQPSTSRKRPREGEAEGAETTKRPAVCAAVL
Serine/threonine-protein kinase B-raf (Homo sapiens), sequence (P15056 whole entry): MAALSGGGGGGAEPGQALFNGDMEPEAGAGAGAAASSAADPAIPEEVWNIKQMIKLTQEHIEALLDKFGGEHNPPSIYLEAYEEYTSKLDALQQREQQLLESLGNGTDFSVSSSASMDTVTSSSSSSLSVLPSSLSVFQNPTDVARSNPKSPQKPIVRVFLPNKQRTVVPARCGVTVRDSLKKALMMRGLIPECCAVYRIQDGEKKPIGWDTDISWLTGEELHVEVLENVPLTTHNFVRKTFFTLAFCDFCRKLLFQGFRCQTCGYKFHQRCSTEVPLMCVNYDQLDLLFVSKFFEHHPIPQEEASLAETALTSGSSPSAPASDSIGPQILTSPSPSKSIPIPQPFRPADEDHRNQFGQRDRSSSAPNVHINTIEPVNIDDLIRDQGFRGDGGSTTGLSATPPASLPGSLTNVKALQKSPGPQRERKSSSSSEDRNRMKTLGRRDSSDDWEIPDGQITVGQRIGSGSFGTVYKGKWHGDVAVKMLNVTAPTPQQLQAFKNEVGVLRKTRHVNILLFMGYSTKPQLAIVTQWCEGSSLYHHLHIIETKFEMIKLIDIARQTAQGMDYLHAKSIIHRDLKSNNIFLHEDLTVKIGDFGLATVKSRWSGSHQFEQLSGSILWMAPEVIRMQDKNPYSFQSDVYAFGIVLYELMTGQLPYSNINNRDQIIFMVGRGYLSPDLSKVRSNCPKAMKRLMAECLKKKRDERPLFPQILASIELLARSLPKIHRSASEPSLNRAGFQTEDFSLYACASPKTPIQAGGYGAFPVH
Serine/threonine-protein kinase 26 (Homo sapiens), sequence (Q9P289 2-416 limits assumed): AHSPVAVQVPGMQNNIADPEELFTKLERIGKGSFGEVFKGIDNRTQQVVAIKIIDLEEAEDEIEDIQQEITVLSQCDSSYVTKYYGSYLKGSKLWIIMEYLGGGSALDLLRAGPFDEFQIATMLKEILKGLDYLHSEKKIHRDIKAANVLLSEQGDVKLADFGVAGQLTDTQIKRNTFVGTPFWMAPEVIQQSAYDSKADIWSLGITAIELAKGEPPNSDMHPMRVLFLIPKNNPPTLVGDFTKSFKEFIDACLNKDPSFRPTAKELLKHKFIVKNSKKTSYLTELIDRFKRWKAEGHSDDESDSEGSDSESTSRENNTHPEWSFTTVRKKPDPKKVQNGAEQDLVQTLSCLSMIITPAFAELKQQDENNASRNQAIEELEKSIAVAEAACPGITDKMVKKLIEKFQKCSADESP
Serine/threonine-protein kinase D2 (Homo sapiens), sequence (Q9BZL6 whole entry): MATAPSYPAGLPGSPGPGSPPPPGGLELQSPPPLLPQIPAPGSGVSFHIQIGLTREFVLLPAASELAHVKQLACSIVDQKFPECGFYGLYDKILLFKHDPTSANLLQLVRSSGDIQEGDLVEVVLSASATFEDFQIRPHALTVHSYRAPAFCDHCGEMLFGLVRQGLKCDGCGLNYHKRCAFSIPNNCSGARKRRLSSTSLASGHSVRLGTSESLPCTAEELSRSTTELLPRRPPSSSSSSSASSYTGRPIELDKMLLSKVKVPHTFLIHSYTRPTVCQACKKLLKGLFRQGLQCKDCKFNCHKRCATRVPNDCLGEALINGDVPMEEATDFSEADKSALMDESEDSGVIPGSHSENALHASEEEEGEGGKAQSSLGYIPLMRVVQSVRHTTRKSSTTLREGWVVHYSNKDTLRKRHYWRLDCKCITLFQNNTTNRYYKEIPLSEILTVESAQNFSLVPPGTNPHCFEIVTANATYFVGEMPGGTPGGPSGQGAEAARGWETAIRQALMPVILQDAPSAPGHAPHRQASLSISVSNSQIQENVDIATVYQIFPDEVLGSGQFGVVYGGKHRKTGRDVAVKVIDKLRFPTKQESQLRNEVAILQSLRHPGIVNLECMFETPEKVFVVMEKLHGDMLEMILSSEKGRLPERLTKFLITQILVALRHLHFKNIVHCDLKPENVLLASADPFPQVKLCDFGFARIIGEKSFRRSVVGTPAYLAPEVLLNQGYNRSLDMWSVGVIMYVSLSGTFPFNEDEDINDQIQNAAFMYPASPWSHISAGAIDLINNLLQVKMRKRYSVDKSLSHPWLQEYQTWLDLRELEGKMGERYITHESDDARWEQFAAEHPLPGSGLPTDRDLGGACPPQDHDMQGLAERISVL
Mitogen-activated protein kinase 8 (Homo sapiens), sequence (P45983 whole entry): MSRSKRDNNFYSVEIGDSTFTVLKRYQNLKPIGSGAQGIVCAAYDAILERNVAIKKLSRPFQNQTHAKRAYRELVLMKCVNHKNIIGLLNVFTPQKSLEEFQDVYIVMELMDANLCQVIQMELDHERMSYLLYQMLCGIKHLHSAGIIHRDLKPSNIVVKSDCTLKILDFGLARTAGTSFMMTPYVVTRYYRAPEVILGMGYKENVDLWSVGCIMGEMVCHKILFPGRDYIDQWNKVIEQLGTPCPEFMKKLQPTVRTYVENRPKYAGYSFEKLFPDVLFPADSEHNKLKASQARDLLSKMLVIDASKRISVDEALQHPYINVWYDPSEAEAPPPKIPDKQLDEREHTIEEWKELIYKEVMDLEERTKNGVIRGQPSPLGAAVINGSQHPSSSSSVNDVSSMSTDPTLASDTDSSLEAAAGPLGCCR
Platelet-derived growth factor receptor beta (Homo sapiens), sequence (P09619 whole entry): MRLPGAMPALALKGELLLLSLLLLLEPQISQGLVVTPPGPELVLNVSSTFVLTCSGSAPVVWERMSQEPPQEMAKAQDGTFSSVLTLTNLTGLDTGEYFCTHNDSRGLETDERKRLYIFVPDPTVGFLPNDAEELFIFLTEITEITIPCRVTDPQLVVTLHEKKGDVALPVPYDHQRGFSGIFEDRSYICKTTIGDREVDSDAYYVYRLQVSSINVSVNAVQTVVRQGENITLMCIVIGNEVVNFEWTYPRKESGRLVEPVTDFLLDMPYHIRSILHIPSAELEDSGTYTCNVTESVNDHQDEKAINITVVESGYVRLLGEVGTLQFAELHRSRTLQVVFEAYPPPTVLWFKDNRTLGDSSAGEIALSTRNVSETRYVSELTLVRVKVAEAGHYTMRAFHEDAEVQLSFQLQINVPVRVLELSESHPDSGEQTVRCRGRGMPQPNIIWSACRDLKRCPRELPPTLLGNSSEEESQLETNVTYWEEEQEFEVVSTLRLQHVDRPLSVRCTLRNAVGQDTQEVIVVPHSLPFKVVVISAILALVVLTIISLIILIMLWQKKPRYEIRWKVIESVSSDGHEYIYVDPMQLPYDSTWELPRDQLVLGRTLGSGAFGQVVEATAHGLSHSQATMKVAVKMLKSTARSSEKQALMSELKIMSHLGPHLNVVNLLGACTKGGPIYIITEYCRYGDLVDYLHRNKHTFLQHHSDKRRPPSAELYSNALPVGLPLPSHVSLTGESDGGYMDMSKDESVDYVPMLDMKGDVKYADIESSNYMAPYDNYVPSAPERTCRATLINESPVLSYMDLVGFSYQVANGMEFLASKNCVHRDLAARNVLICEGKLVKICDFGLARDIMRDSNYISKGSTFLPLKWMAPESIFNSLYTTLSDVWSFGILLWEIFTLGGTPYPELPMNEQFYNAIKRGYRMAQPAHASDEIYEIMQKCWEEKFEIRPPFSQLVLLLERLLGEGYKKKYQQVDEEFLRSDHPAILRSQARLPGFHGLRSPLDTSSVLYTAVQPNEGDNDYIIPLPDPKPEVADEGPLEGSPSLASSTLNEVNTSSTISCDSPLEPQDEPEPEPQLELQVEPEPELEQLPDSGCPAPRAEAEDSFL

inhibition [1]: < 50%
inhibition [2]: < 50%
inhibition [3]: < 50%
inhibition [4]: < 50%
inhibition [5]: < 50%
inhibition [6]: < 50%
inhibition [7]: < 50%
inhibition [8]: < 50%
inhibition [9]: < 50%
inhibition [10]: < 50%
inhibition [11]: < 50%
inhibition [12]: < 50%
inhibition [13]: < 50%
inhibition [14]: < 50%
inhibition [15]: < 50%
inhibition [16]: < 50%
inhibition [17]: < 50%
inhibition [18]: < 50%
inhibition [19]: < 50%
inhibition [20]: < 50%
inhibition [21]: < 50%
inhibition [22]: < 50%
inhibition [23]: < 50%
inhibition [24]: < 50%
inhibition [25]: < 50%
inhibition [26]: < 50%
inhibition [27]: < 50%
inhibition [28]: < 50%
inhibition [29]: < 50%
inhibition [30]: < 50%
inhibition [31]: < 50%
inhibition [32]: < 50%
inhibition [33]: < 50%
inhibition [34]: < 50%
inhibition [35]: < 50%
inhibition [36]: < 50%
inhibition [37]: < 50%
inhibition [38]: < 50%
inhibition [39]: < 50%
inhibition [40]: < 50%
inhibition [41]: < 50%
inhibition [42]: < 50%
inhibition [43]: < 50%
inhibition [44]: < 50%
inhibition [45]: < 50%
inhibition [46]: < 50%
inhibition [47]: < 50%
SMILES: Cc1cc(OCc2ccc(F)cc2F)c(Br)c(=O)n1Cc1ccc(CN(C)C)cc1
